Measured values reported in publication PMC12373846, “Hemoglobin as a pseudoperoxidase and drug target for oxidative stress-related diseases” (Signal Transduction and Targeted Therapy, 2025).

Experiments:
[1] = tested on: primary cultured hippocampal astrocytes; assay: DCFDA intracellular ROS assay; format: cell-based, mouse; conditions: Aβ 5μM + compound 10μM, Fig. 3e
Method: Primary hippocampal astrocytes were obtained from postnatal day 0‒2 (P0‒2) C57BL/6 mice as previously described.[73] The hippocampal tissue was dissected free of meninges, minced, and dissociated into a single-cell suspension by trituration. The cells were grown in Dulbecco’s modified Eagle’s medium supplemented with D-glucose (4500 mg/L), L-glutamine, sodium pyruvate (110 mg/L), 10% heat-inactivated horse serum, 10% heat-inactivated fetal bovine serum, and 1000 U/ml penicillin‒streptomycin. The cells were maintained at 37 °C in a humidified atmosphere containing 5% CO2.
The intracellular ROS levels of astrocytes were determined via 2′,7′- dichlorodihydrofluorescein diacetate (DCFDA; Thermo Fisher). Primary cultured hippocampal astrocytes were seeded into black 96-well plates (Ibidi) at a density of 5 × 10⁴ cells per well. The plates were incubated with oligomerized Aβ42 in the presence of KDS12008, KDS12017, KDS12025, HTPEB (10 µM each), and sodium pyruvate (1 mM). These cells were subsequently washed with Ca^2+ and Mg^2+-containing PBS, followed by the application of 30 µM DCFDA and incubation at 37 °C for 30 min in a dark incubator. The mean fluorescence intensity of each well was measured via iD5 microplate readers at 485 nm and 530 nm. The fluorescence values were calculated by subtracting the blank readings and normalizing them to those of the control group.

APP/PS1 mice [2] = assay: Passive avoidance test, APP/PS1 mice; format: in vivo, mouse; conditions: 3 mg/kg/day i.p., 16 times, Fig. S10b
Method: (§1) For an animal model of AD, both sexes of 10- to 18-month-old APP/PS1 mice were maintained and used as previously described.[76],[77] To test the effects of novel H2O2-decomposing enhancers in the AD model, the mice were treated by i.p. injection with KDS12008 (3 mg/kg/day), KDS12017 (3 mg/kg/day), or KDS12025 (3 or 10 mg/kg/day) once per day for 1 or 2 weeks, depending on the experimental protocol. All drugs were dissolved in 200 μl of saline, and the amount of each drug was calculated on the basis of the weight (kg) of the mouse. Moreover, KDS12025 (3 mg/kg/day) was orally administered to the AD model for 2 weeks ad libitum.
Sufficiently handled mice were ready before the PAT. The mice were placed in a two-compartment (light and dark) shuttle chamber with a shock generator (Ugo Basile, Italy). On the first day, the mice were placed in the light compartment for acquisition. The mice were allowed to explore the light compartment for 60 s, after which the door separating the light and dark compartments was raised to allow the mice to enter the dark compartment. When the mice entered the dark compartment, the separating door was closed immediately, and an electrical foot shock (0.5 mA, 2 s duration) was delivered through the floor grid. The mice were then moved back to the home cage, and the retention trial was conducted 24 h after the acquisition. On the second day, the mice were again placed in the light compartment for the retention trial. After 60 s, the door was raised to allow the mice to enter the dark compartment. The latency to step through the dark compartment before and after the electric shock was recorded for up to 540 s.

APP/PS1 mice [3] = assay: Immunohistochemistry of hippocampus, APP/PS1 mice; format: in vivo, mouse; conditions: 3 mg/kg/day i.p.; for mean intensity of Iba1 in the hippocampus: Fig. S10e; for mean intensity of GFAP in the hippocampus: Fig. S10d
Method: as §1
The mice were deeply anesthetized with vaporized 1% isoflurane and placed into stereotaxic frames (RWD Life Science, China). Following an incision on the midline of the scalp, a hole was drilled into the skull above the hippocampus. AAV-GFAP104-GFP or AAV-GFAP104-DTR-GFP was bilaterally microinjected into the hippocampal CA1 region (AP, −2.0 mm; ML, ±1.5 mm; DV, −1.65 mm from the bregma). Diphtheria toxin (2 mg/ml) was administered for 16 days as previously described.[77] For shRNA knockdown, AAV-pSicoR-Hbβ-shRNA-mCherry or AAV-pSicoR-Sc-shRNA-mCherry was microinjected into the same coordinate system. A total of 0.8 µl of the virus was injected via a syringe pump (KD Scientific, USA). The injection procedures were implemented before 5 weeks of the experiments. For cell type-specific knockdown, AAV-pSico-Hbβ-shRNA-GFP or AAV-pSico-Sc-shRNA-GFP was combined with either AAV-CaMKII-Cre-mCherry for neuronal targeting or AAV-GFAP-Cre-mCherry for astrocyte targeting. The viruses were bilaterally injected into the hippocampus and substantia nigra via the same stereotaxic coordinates and injection procedures. All viruses used in this study were produced at the Institute for Basic Science virus facility (IBS virus facility, Korea). To investigate the effects of 0.1 mg/kg/day KDS12025, GiD mice were injected with diphtheria toxin (2 mg/ml) daily for 16 days. Concurrently, KDS12025 was administered ad libitum (0.1 mg/kg/day) during the same period.
The mice were deeply anesthetized with 2% isoflurane and positioned on the operating table. After the abdomen was opened and the heart was exposed, the […] were perfused with saline, followed by 4% paraformaldehyde (PFA) in 0.1 M PBS. The mice were decapitated, and the brains were excised from the skull. Excised brains were postfixed in 4% PFA overnight at 4 °C and dehydrated in 30% sucrose for 48 h. Coronal hippocampal sections were cut at 30 µm thickness with a cryostat and stored in storage solution. For the ALS experiments, lumbar spinal cords (L2–L5) were also carefully dissected and immediately immersed in 4% PFA for postfixation. The sections were fully washed in 0.1 M PBS and incubated for 1 h in blocking solution (0.3% Triton X-100, 2% donkey and goat serum in 0.1 M PBS). Next, a mixture of primary antibodies in the blocking solution was used for immunostaining on a shaker overnight at 4 °C. The sections were washed in PBS three times. After washing, the sections were incubated with the corresponding fluorescent secondary antibodies for 1 h at RT. DAPI staining was performed by adding a DAPI solution (1:2000) during the second washing step. After the washing step was complete, the sections were mounted on cover slides with mounting medium. A series of fluorescence images were obtained with an LSM900 (Zeiss, Germany) confocal microscope or Lattice SIM Elyra 7 (Zeiss, Germany). The 15–22 μm Z stack images in 1–2 μm steps were processed for image analysis, which was performed via the ImageJ (NIH, US) and ZEN digital imaging for light microscopy blue system (Zeiss, Germany) programs.

Q: With `O=C(O)c1cc(NCCc2ccc(C(F)(F)F)cc2)ccc1O` [HTPEB, 2-hydroxy-5-[2-(4-trifluoromethyl-phenyl)-ethylamino]-benzoic acid, reference compound] as the compound, how does the “Aβ-induced ROS level (DCFDA), normalized to control” value [1] read?
A: 112.0±8.321

Q: Which results are given for `CN(C)c1ccc(NCCc2ccc(C(F)(F)F)cc2)cc1.Cl` [KDS12008, N^1,N^1-dimethyl-N^4-(4-(trifluoromethyl)phenethyl)benzene-1,4-diamine hydrochloride salt]?
A: PAT transfer latency, acquisition (APP/PS1 mice [2]): 44.42±13.85; PAT transfer latency, retrieval (APP/PS1 mice [2]): 233.6±102.3; Aβ-induced ROS level (DCFDA), normalized to control [1]: 96.78±7.989; mean intensity of Iba1 in the hippocampus (APP/PS1 mice [3]): 1562±64.27; mean intensity of GFAP in the hippocampus (APP/PS1 mice [3]): 2063±93.76

Q: Which results are given for `CNc1ccc(NCCc2ccc(C(F)(F)F)cc2)cc1.Cl` [KDS12017, N^1-methyl-N^4-(4-(trifluoromethyl)phenethyl)benzene-1,4-diamine hydrochloride salt]?
A: PAT transfer latency, acquisition (APP/PS1 mice [2]): 71.53±23.24; PAT transfer latency, retrieval (APP/PS1 mice [2]): 305.6±137.5; Aβ-induced ROS level (DCFDA), normalized to control [1]: 109.6±6.466; mean intensity of Iba1 in the hippocampus (APP/PS1 mice [3]): 1556±53.65; mean intensity of GFAP in the hippocampus (APP/PS1 mice [3]): 1711±145.9
